We go through one compound from ChEMBL document CHEMBL3832062, “DailyMed|setid=a9c47f08-bd02-4731-aaf7-42173155b2d0 | XENICAL- orlistat capsule|A-S Medication Solutions LLC”.

The series can be described thus: Pharmacokinetic parameters for Orlistat evaluated after of oral administration of Orlistat capsules. Type of series: ADME, organism-based. The note with it: human, in vivo, dosed compound id 42, dosed compound name ORLISTAT, tissue Plasma.

The compound `CCCCCCCCCCC[C@@H](C[C@@H]1OC(=O)[C@H]1CCCCCC)OC(=O)[C@H](CC(C)C)NC=O` [ORLISTAT] came in with a half-life of 1 to 2 h. The fraction unbound (read-out: Protein binding) was in the range of 0.01 to 0.99.

One may read the half-life as how long it takes for the measured level to halve. Read a low half-life as rapid decline.
